Tested on: parallel-stranded MYC_14/23T, MYC1234 and VEGF G4s
Assay: 1D 1H NMR titration with parallel G4s
Assay type: binding, human
Description: The binding selectivity of BMVC to G4 structures and flanking sequences was confirmed by NMR titration experiments of BMVC to different G4 sequences, including parallel-stranded MYC_14/23T G4 and its 5′- and 3′-flanking variants, VEGF and MYC1234 G4s, basket-type human telomeric G4 (wtTel22 in Na+), and hybrid type human telomeric G4 (Tel26 in K+) (FIG. 12). BMVC binds best to the MYC_14/23T G4, as indicated by well-resolved imino proton peaks for BMVC complexes (FIG. 12, panel a). […] In contrast, the 3′-end binding of BMVC is sensitive to the mutations at the 3′-flanking sequence, with a clear preference for the 3′-flanking T. In addition, BMVC prefers at least two flanking bases for a specific binding.
G4 DNA oligonucleotides were synthesized using β-cyanoethylphosphoramidite solid-phase chemistry (Applied Biosystem Expedite 8909), as described previously. NMR experiments were performed on a Bruker AV-III-500-HD equipped with a BBFO Z-gradient cryoprobe. DNA samples were heated to 95° C. for 5 min, then cooled slowly for G4 formation. For the 1D 1H NMR experiments, samples contained 100-250 μM DNA in an appropriate buffer solution with 10% D2O for the lock. The titrations were performed by adding increasing amounts of the compounds to the DNA samples in solution.

binding to MYC1234 and VEGF G4 by NMR titration (other parallel G4s): bind well
binding to MYC_14/23T G4 by NMR titration (well-resolved imino proton peaks, 95 mM K+, pH 7, 25° C.): binds best
Structure (SMILES): C[n+]1ccc(/C=C/c2ccc3[nH]c4ccc(/C=C/c5cc[n+](C)cc5)cc4c3c2)cc1.[I-].[I-] [BMVC, 3,6-Bis(1-methyl-4-vinylpyridinium) carbazole diiodide]

Source: patent US20210333284A1, “METHODS AND MATERIALS FOR LARGE-SCALE ASSESSMENT OF LIGAND BINDING SELECTIVITY OF G-QUADRUPLEX RECOGNITION USING CUSTOM G4 MICROARRAYS” (Purdue Research Foundation, priority 2020, published 2021)
